Columns and labels:
[1] = test system: Canis familiaris; test: Saluretic property in average of two anesthetized dogs after 5 mg/kg intravenous administration; type: functional, Canis lupus familiaris
[2] = test system: Rattus norvegicus; test: Saluretic property after 50 mg/kg oral administration in rats; type: functional
[3] = test system: Canis familiaris; test: Saluretic property in average of three anesthetized dogs after 5 mg/kg intravenous administration; type: functional, Canis lupus familiaris
[4] = test system: Canis familiaris; test: Saluretic property in average of two anesthetized dogs after 1 mg/kg intravenous administration; type: functional, Canis lupus familiaris
[5] = test system: Canis familiaris; test: Saluretic property in average of single anesthetized dogs after 5 mg/kg intravenous administration; type: functional, Canis lupus familiaris
[6] = test system: Canis familiaris; test: Saluretic property in average of one used conscious dog after 5 mg/kg intravenous administration; type: functional, Canis lupus familiaris
[7] = test system: Rattus norvegicus; test: Saluretic property after 80 mg/kg oral administration in rats; type: functional
[8] = test system: Canis familiaris; test: Saluretic property in average of two conscious dogs after 5 mg/kg intravenous administration; type: functional, Canis lupus familiaris
[9] = test system: Canis familiaris; test: Saluretic property in average of two anesthetized dogs after 5 mg/kg iv administration; type: functional, Canis lupus familiaris

SMILES | Score [1] | Score [2] | other results
Cl.NCc1c(O)ccc2ccccc12 | 1 | – | –
CCC1Cc2c(Cl)c(Cl)c(O)c(CN)c2C1.Cl (centres undefined) | 0 | 0 | –
Cl.NCc1c(O)ccc2nccnc12 | – | 0 | Score [3]: 1
NS(=O)(=O)c1cc(C(=O)O)c(NCc2ccco2)cc1Cl [FUROSEMIDE] | – | 3 | Score [4]: 6
Cl.NCc1cc(Cl)c2ccccc2c1O | 6 | 2 | –
Cl.Cl.NCc1ccc2cnccc2c1O | – | 0 | Score [5]: 1
CC1Nc2ccc(O)c(CN)c2S1.Cl.Cl (centres undefined) | 0 | 0 | –
NS(=O)(=O)c1cc2c(cc1Cl)NCNS2(=O)=O [HYDROCHLOROTHIAZIDE] | – | 2 | Score [3]: 1
Cl.Cl.NCc1c(O)ccc2ncccc12 | – | 0 | Score [6]: 1
Cl.Cl.NCc1c(O)ccc2cccnc12 | 0 | – | Score [7]: 0
Cc1cc(C)c2c(c1O)C(N)CC2.Cl (centres undefined) | 0 | 0 | –
Cl.Cl.Cl.NCc1cc(Cl)c2cccnc2c1O | – | – | Score [8]: 1
Cc1cc(=O)oc2ccc(O)c(CN)c12.Cl | – | 0 | Score [9]: 0
Cc1c(O)c(CN)c(C)c2c1CCCC2.Cl | – | 5 | Score [8]: 4
NCc1ccccc1O [2-(AMINOMETHYL)PHENOL] | – | 0 | Score [9]: 0
Cl.NC1CCc2c(Cl)ccc(O)c21 (centres undefined) | 1 | – | –
